Measured values reported in ChEMBL document CHEMBL1127015, “Centrally acting serotonergic and dopaminergic agents. 1. Synthesis and structure-activity relationships of 2,3,3a,4,5,9b-hexahydro-1H-benz[e]indole derivatives” (J Med Chem, 1993).
pIC50, pKi: −log10 of the molar value. Where “and” joins values, the source holds several entries; their conditions need not be identical. Equal values may be shown once.

Columns and labels:
[1] = test system: Rattus norvegicus; experiment: Effect on the synthesis rates of serotonin in the rat ventral limbic brain region at 12 micro mol/kg.; format: functional, Limbic system
[2] = test system: Mus musculus; experiment: Effective dose on hypothermia in mouse when administered subcutaneously; format: functional; settings: sc
[3] = test system: Mus musculus; experiment: Effective dose on hypothermia in mouse when administered through peroral route; format: functional; settings: po
[4] = test system: Rattus norvegicus; experiment: Inhibition of firing rates of serotonergic neurons in the dorsal raphe nucleus by intravenous injection in rats; format: functional
[5] = molecular target: T1, D(2) dopamine receptor (Rattus norvegicus, UniProt P61169); experiment: Inhibitory concentration against [3H]raclopride-labeled dopamine receptor D2 in rat striatum; format: tissue-based
[6] = test system: Rattus norvegicus; experiment: Effect on the synthesis rates of dopamine in the rat ventral limbic brain region at 12 micro mol/kg.; format: functional, Limbic system
[7] = test system: Felis catus; experiment: Maximum decrease of arterial blood pressure at sympathetic nerve activity (SND) in anesthetized cat has been observed following 1 mg/kg dose; format: functional; parameters: scale not given: the % may be the effect or the level left
[8] = test system: Felis catus; experiment: Effective dose at which the sympathetic nerve activity (SND) has been reduced to 50% of the pretreatment value in anesthetized cat; format: functional
[9] = test system: Felis catus; experiment: Maximum decrease of sympathetic nerve activity (SND) in anesthetized cat; format: functional; parameters: scale not given: the % may be the effect or the level left
[10] = test system: Mus musculus; experiment: Maximum decrease in temperature when compound is administered through peroral route; format: functional
[11] = organism: Felis catus; experiment: Percent of arterial blood pressure at sympathetic nerve activity (SND) dose value was determined; format: functional
[12] = test system: Mus musculus; experiment: Maximum decrease in temperature when compound is administered subcutaneously; format: functional
[13] = test system: Mus musculus; experiment: Antagonism of apomorphine for 0-10 minutes in reserpinized mice when a dose of 38 micro mol/kg is administered intraperitoneally; format: functional
[14] = test system: Mus musculus; experiment: Antagonism of apomorphine for 10-20 minutes in reserpinized mice when a dose of 3.8 micro mol/kg is administered intraperitoneally; format: functional
[15] = test system: Mus musculus; experiment: Antagonism of apomorphine in reserpinized mice when a dose of 3.8 micro mol/kg is administered intraperitoneally; format: functional
[16] = test system: Mus musculus; experiment: Ability to stimulate dopaminergic systems by effect on locomotor activity in reserpinized mice when a dose of 3.8 micro mol/kg is administered intraperitoneally; format: functional
[17] = test system: Mus musculus; experiment: Antagonism of apomorphine for 10-20 minutes in reserpinized mice when a dose of 38 micro mol/kg is administered intraperitoneally; format: functional
[18] = test system: Mus musculus; experiment: Antagonism of apomorphine in reserpinized mice when a dose of 38 micro mol/kg is administered intraperitoneally; format: functional
[19] = test system: Mus musculus; experiment: Antagonism of apomorphine effects in reserpinized mice following 0.4 umol/kg i.p.; format: functional
[20] = test system: Mus musculus; experiment: Antagonism of apomorphine effects for 10-20 minutes in reserpinized mice following 0.4 umol/kg i.p.; format: functional
[21] = test system: Mus musculus; experiment: Ability to stimulate dopaminergic systems by effect on locomotor activity in reserpinized mice when a dose of 38 micro mol/kg is administered intraperitoneally; format: functional
[22] = test system: Mus musculus; experiment: Antagonism of apomorphine effects for 0-10 minutes in reserpinized mice following 0.4 umol/kg i.p.; format: functional; parameters: unit not given beside the values
[23] = organism: Rattus norvegicus; experiment: Effect on the synthesis rates of serotonin (5-HTP accumulation) in the rat ventral limbic brain region at 3.8uMkg; format: functional, Limbic system
[24] = molecular target: T2, D(2) dopamine receptor (Homo sapiens, UniProt P14416); experiment: Binding affinity against [3H]U-86,170-labeled dopamine receptor D2 in cloned CHO cells; format: cell-based
[25] = test system: Mus musculus; experiment: Antagonism of apomorphine for 0-10 minutes in reserpinized mice when a dose of 3.8 micro mol/kg is administered intraperitoneally; format: functional
[26] = test system: Mus musculus; experiment: Increase in locomotor activity in reserpinized mice following 0.4 umol/kg i.p.; format: functional
[27] = molecular target: T2, D(2) dopamine receptor; experiment: Intrinsic activity from GTP shift using membranes from CHO cells transfected with mammalian dopamine receptor D2.; format: cell membranes
[28] = test system: Rattus norvegicus; experiment: Inhibition of firing rates of dopaminergic neurons in the substantia nigra pars compacta by intravenous injection in rats.; format: functional; settings: Rattus norvegicus, Substantia nigra pars compacta, iv; read-out: ED50
[29] = organism: Rattus norvegicus; experiment: Effect on the synthesis rates of serotonin (5-HTP accumulation) in the rat ventral limbic brain region at 3.8uMkg.; format: functional, Limbic system
[30] = molecular target: T1, D(2) dopamine receptor; experiment: Binding affinity against [3H]raclopride-labeled dopamine receptor D2 in rat striatum.; format: tissue-based
[31] = organism: Rattus norvegicus; experiment: Effect on the synthesis rates of serotonin (5-HTP accumulation) in the rat ventral limbic brain region at 10.2uMkg.; format: functional, Limbic system
[32] = molecular target: T1, D(2) dopamine receptor; experiment: Inhibition concentration against [3H]raclopride-labeled dopamine receptor D2 in rat striatum was estimated by single point experiment. compound was run at 1 uM; format: tissue-based
[33] = test system: Rattus norvegicus; experiment: Effect on the synthesis rates of dopamine in the rat ventral limbic brain region at 4.0 micro mol/kg. Values are given as percent change from the control (*p<0.05); format: functional, Limbic system
[34] = test system: Rattus norvegicus; experiment: Effect on the synthesis rates of serotonin in the rat ventral limbic brain region 4.0 micro mol/kg. Values are given as percent change from the control; format: functional, Limbic system
[35] = test system: Mus musculus; experiment: Effective dose on hypothermia in mouse when administered subcutaneously (95% confidence levels); format: functional; settings: sc
[36] = molecular target: T1, D(2) dopamine receptor; experiment: Compound was evaluated for the binding affinity against [3H]U-86,170-labeled dopamine receptor D2 in cloned CHO cells; format: cell-based
[37] = test system: Rattus norvegicus; experiment: Effect on the synthesis rates of serotonin in the rat ventral limbic brain region at 2.7 micro mol/kg; format: functional, Limbic system

T1 sequence (P61169 whole entry): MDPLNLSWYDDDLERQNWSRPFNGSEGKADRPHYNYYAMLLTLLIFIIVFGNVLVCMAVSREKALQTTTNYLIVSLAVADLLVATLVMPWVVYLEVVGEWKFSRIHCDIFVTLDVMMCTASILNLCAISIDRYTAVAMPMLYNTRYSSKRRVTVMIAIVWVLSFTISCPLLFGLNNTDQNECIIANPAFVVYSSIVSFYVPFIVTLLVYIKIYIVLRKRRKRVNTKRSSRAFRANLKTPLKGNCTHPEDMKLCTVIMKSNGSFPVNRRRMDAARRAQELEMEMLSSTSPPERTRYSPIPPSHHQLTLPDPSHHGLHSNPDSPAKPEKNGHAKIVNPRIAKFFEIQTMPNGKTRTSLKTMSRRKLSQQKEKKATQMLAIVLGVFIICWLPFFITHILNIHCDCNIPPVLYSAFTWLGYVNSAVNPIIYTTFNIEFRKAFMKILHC
T2 sequence (P14416 whole entry): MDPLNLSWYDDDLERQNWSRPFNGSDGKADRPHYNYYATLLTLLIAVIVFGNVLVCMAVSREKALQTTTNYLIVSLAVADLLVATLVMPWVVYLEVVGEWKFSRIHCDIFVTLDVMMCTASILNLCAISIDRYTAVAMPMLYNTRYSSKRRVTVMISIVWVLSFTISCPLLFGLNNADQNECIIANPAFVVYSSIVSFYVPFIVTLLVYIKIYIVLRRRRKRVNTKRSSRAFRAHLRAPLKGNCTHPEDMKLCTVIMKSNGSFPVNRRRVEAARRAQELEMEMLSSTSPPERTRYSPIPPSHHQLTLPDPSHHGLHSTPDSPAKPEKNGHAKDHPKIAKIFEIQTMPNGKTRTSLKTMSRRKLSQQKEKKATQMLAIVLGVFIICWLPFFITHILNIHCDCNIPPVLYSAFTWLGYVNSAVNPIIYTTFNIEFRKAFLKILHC

Structure (SMILES) | Max temperature decrease [12] | Locomotor activity [13] | Locomotor activity [14] | Locomotor activity [15] | Locomotor activity [16] | Locomotor activity [17] | Locomotor activity [18] | Locomotor activity [19] | Locomotor activity [20] | Locomotor activity [21] | Locomotor activity [22] | Locomotor activity [25] | Locomotor activity [26] | other results
C=CCN1CC[C@H]2c3ccccc3CC[C@H]21 (racemic) | 4.4 | – | – | – | – | – | – | – | – | – | – | – | – | Control [1]: -46%; ED50 [2]: 22 µmol/kg; ED50 [3]: 69 µmol/kg; ED50 [4]: 0.12 µmol/kg; pIC50 [5]: < 6.00; Control [6]: 20%; Control [7]: 60%; ED50 [8]: 0.36 µmol/kg; Control [9]: 0%; Max temperature decrease [10]: 4; BP [11]: 76%
C=CCN1CC[C@@H]2c3cccc(O)c3CC[C@H]21 (racemic) | 2.1 | 5 | 82 | 67 | 4 | 8 | 6 | 109 | 83 | 53 | 65 | 29 | 12 | ED50 [2]: 113 µmol/kg; Control [23]: 73%; pKi [24]: 8.39; Intrinsic activity [27]: 44%; ED50 [28]: 0.97 µmol/kg; Control [29]: -12%
COc1cccc2c1CC[C@@H]1[C@H]2CCN1CC1CC1 (racemic) | – | – | – | – | – | – | – | – | – | – | – | – | – | pKi [30]: < 5.00; Control [31]: -15% and -7%
C=CCN1CC[C@@H]2c3ccccc3CC[C@H]21 (racemic) | 4.5 | – | – | – | – | – | – | – | – | – | – | – | – | pKi [32]: < 6.00; Control [33]: 26%; Control [34]: -7%; ED50 [35]: 45 µmol/kg
C=CCN1CC[C@H]2c3c(O)cccc3CC[C@H]21 (racemic) | – | 54 | 68 | 8 | 63 | 69 | 11 | 46 | 62 | 32 | 56 | 78 | 135 | pKi [36]: 6.82
C=CCN1CCC2c3cccc(O)c3CC[C@H]21 (single isomer, unassigned; (-)) | – | 22 | 115 | 62 | 8 | 23 | 7 | 54 | 105 | 3 | 110 | 97 | 73 | pKi [30]: 7.31; Control [23]: 45%; pKi [24]: 6.97; Intrinsic activity [27]: 22%; Control [29]: -0.3%
O=C(CCCN1CCC(O)(c2ccc(Cl)cc2)CC1)c1ccc(F)cc1 [HALOPERIDOL] | – | – | – | – | – | – | – | – | – | – | – | – | – | Control [37]: -7%
